According to publication PMC5218480 (PLoS ONE, 2017):

Test system: MV-4-11 cells
Experiment: Gene expression microarray analysis (Affymetrix PrimeView) and GSEA
Assay type: cell-based, human
Design: RFU PODN (11730768_x_at) / Fold change /veh PODN (11730768_x_at) / RFU LINC00158 (11744669_a_at) / Fold change /veh LINC00158 (11744669_a_at) / RFU DUSP10 (11751237_a_at) / Fold change /veh DUSP10 (11751237_a_at) / RFU ID3 (11757404_x_at) / Fold change /veh ID3 (11757404_x_at) / RFU PLEKHG5 (11737974_s_at) / Fold change /veh PLEKHG5 (11737974_s_at) / RFU LRRC4B (11730491_at) / Fold change /veh LRRC4B (11730491_at) / RFU GIMAP4 (11747438_a_at) / Fold change /veh GIMAP4 (11747438_a_at) / RFU KRT8 (11758183_x_at) / Fold change /veh KRT8 (11758183_x_at) / RFU CNN1 (11734310_a_at) / Fold change /veh CNN1 (11734310_a_at) / RFU VPS37D (11726825_at) / Fold change /veh VPS37D (11726825_at) / RFU C10orf10 (11716522_x_at) / Fold change /veh C10orf10 (11716522_x_at) / RFU KIR2DL2 /// KIR2DL4 /// KIR2DL5A /// KIR2DL5B /// KIR2DS1 /// KIR2DS2 /// KIR2DS3 /// KIR2DS4 /// KIR3DL3 /// KIR3DL3 /// KIR3DS1 (11738374_at) / Fold change /veh KIR2DL2 /// KIR2DL4 /// KIR2DL5A /// KIR2DL5B /// KIR2DS1 /// KIR2DS2 /// KIR2DS3 /// KIR2DS4 /// KIR3DL3 /// KIR3DL3 /// KIR3DS1 (11738374_at) / RFU C1QL1 (11718748_at) / Fold change /veh C1QL1 (11718748_at) / RFU TMPRSS4 (11747572_a_at) / Fold change /veh TMPRSS4 (11747572_a_at) / RFU HAMP (11756126_x_at) / Fold change /veh HAMP (11756126_x_at) / RFU RNFT2 (11725882_a_at) / Fold change /veh RNFT2 (11725882_a_at) / RFU NR4A2 (11747474_a_at) / Fold change /veh NR4A2 (11747474_a_at) / RFU ABCC12 (11746883_a_at) / Fold change /veh ABCC12 (11746883_a_at) / RFU TMEM136 (11760407_x_at) / Fold change /veh TMEM136 (11760407_x_at) / RFU CLDN22 /// WWC2 (11732394_at) / Fold change /veh CLDN22 /// WWC2 (11732394_at) / RFU HLA-DPB1 (11760878_x_at) / Fold change /veh HLA-DPB1 (11760878_x_at) / RFU SPINT1 (11716480_a_at) / Fold change /veh SPINT1 (11716480_a_at) / RFU GAP43 (11754022_s_at) / Fold change /veh GAP43 (11754022_s_at) / RFU A4GNT (11735810_at) / Fold change /veh A4GNT (11735810_at) / RFU PRB3 (11715151_x_at) / Fold change /veh PRB3 (11715151_x_at) / RFU TUBB4B (11761932_at) / Fold change /veh TUBB4B (11761932_at) / RFU CAPN14 (11732068_a_at) / Fold change /veh CAPN14 (11732068_a_at) / RFU TMCC2 (11721928_a_at) / Fold change /veh TMCC2 (11721928_a_at) / RFU IRGQ (11745062_a_at) / Fold change /veh IRGQ (11745062_a_at) / RFU FAM174B (11720279_a_at) / Fold change /veh FAM174B (11720279_a_at) / RFU TMPRSS4 (11748680_a_at) / Fold change /veh TMPRSS4 (11748680_a_at) / RFU FAM212B (11763350_a_at) / Fold change /veh FAM212B (11763350_a_at) / RFU PLEKHG5 (11743358_a_at) / Fold change /veh PLEKHG5 (11743358_a_at) / RFU ZSCAN30 (11745921_a_at) / Fold change /veh ZSCAN30 (11745921_a_at) / RFU CMKLR1 (11741424_a_at) / Fold change /veh CMKLR1 (11741424_a_at) / RFU LOC101060620 /// MAPK8IP1 (11723275_at) / Fold change /veh LOC101060620 /// MAPK8IP1 (11723275_at) / RFU SPTSSB (11747773_x_at) / Fold change /veh SPTSSB (11747773_x_at) / RFU PRSS12 (11739890_at) / Fold change /veh PRSS12 (11739890_at) / RFU BIN1 (11741810_x_at) / Fold change /veh BIN1 (11741810_x_at) / RFU WNT11 (11732464_a_at) / Fold change /veh WNT11 (11732464_a_at) / RFU C10orf10 (11716521_a_at) / Fold change /veh C10orf10 (11716521_a_at) / RFU C5orf56 (11738089_at) / Fold change /veh C5orf56 (11738089_at) / RFU CYB561 (11721691_x_at) / Fold change /veh CYB561 (11721691_x_at) / RFU ANKRD19P (11752326_a_at) / Fold change /veh ANKRD19P (11752326_a_at) / RFU OR2T12 /// OR2T33 /// OR2T8 (11738714_s_at) / Fold change /veh OR2T12 /// OR2T33 /// OR2T8 (11738714_s_at) / RFU VCAN (11748164_a_at) / Fold change /veh VCAN (11748164_a_at) / RFU JSRP1 (11732532_at) / Fold change /veh JSRP1 (11732532_at) / RFU KRTAP10-11 (11738290_x_at) / Fold change /veh KRTAP10-11 (11738290_x_at) / RFU MYO3A (11730013_a_at) / Fold change /veh MYO3A (11730013_a_at) / RFU EBF3 (11725865_a_at) / Fold change /veh EBF3 (11725865_a_at) / RFU CAMK2N1 (11719241_x_at) / Fold change /veh CAMK2N1 (11719241_x_at) / RFU C5orf56 (11738088_a_at) / Fold change /veh C5orf56 (11738088_a_at) / RFU OLFML3 (11715873_a_at) / Fold change /veh OLFML3 (11715873_a_at) / RFU LOC100653217 /// NTM (11731650_a_at) / Fold change /veh LOC100653217 /// NTM (11731650_a_at) / RFU MAPK11 (11762145_a_at) / Fold change /veh MAPK11 (11762145_a_at) / RFU FIZ1 (11724087_x_at) / Fold change /veh FIZ1 (11724087_x_at) / RFU OASL (11726364_x_at) / Fold change /veh OASL (11726364_x_at) / RFU SOX15 (11748057_x_at) / Fold change /veh SOX15 (11748057_x_at) / RFU CD79A (11719716_a_at) / Fold change /veh CD79A (11719716_a_at) / RFU HIST1H1D (11736915_at) / Fold change /veh HIST1H1D (11736915_at) / RFU CASKIN2 (11723855_a_at) / Fold change /veh CASKIN2 (11723855_a_at) / RFU LOC730098 (11760151_x_at) / Fold change /veh LOC730098 (11760151_x_at) / RFU OR4N2 (11742367_at) / Fold change /veh OR4N2 (11742367_at) / RFU PRRT2 (11749266_a_at) / Fold change /veh PRRT2 (11749266_a_at) / RFU SNX32 (11753110_a_at) / Fold change /veh SNX32 (11753110_a_at) / RFU CDHR5 (11726645_a_at) / Fold change /veh CDHR5 (11726645_a_at) / RFU RCAN1 (11760418_a_at) / Fold change /veh RCAN1 (11760418_a_at) / RFU FAM167A (11723789_a_at) / Fold change /veh FAM167A (11723789_a_at) / RFU FAM26E (11764081_at) / Fold change /veh FAM26E (11764081_at) / RFU ISYNA1 (11749810_s_at) / Fold change /veh ISYNA1 (11749810_s_at) / RFU ACY1 (11761880_at) / Fold change /veh ACY1 (11761880_at) / RFU 11764098_at / Fold change /veh 11764098_at / RFU SAMD14 (11745864_x_at) / Fold change /veh SAMD14 (11745864_x_at) / RFU NPB (11741838_a_at) / Fold change /veh NPB (11741838_a_at) / RFU TMPRSS6 (11731388_a_at) / Fold change /veh TMPRSS6 (11731388_a_at) / RFU KRTAP10-2 (11738614_at) / Fold change /veh KRTAP10-2 (11738614_at) / RFU ARHGAP8 /// PRR5-ARHGAP8 (11727945_x_at) / Fold change /veh ARHGAP8 /// PRR5-ARHGAP8 (11727945_x_at) / RFU KRTAP5-7 /// NADSYN1 (11734609_at) / Fold change /veh KRTAP5-7 /// NADSYN1 (11734609_at) / RFU RASL12 (11751679_a_at) / Fold change /veh RASL12 (11751679_a_at) / RFU CDKN2B (11736163_a_at) / Fold change /veh CDKN2B (11736163_a_at) / RFU PRF1 (11729649_at) / Fold change /veh PRF1 (11729649_at) / RFU, ZNF638 /// ZNF638-IT1 / Fold change vs veh, ZNF638 /// ZNF638-IT1 / RFU, PANK3 / Fold change vs veh, PANK3 / RFU, SH3YL1 / Fold change vs veh, SH3YL1 / RFU, ZEB2 / Fold change vs veh, ZEB2 / RFU, NRIP1 / Fold change vs veh, NRIP1 / RFU, PTTG1IP / Fold change vs veh, PTTG1IP / RFU, CAPN2 / Fold change vs veh, CAPN2 / RFU, MED14 / Fold change vs veh, MED14 / RFU, SNORA58 / Fold change vs veh, SNORA58 / RFU, C1orf63 / Fold change vs veh, C1orf63 / RFU, LRRFIP1 / Fold change vs veh, LRRFIP1 / RFU, NDUFAF7 / Fold change vs veh, NDUFAF7 / RFU, SLC12A2 / Fold change vs veh, SLC12A2 / RFU, IBTK / Fold change vs veh, IBTK / RFU, ESF1 / Fold change vs veh, ESF1 / Fold change vs veh, TMEM50B / RFU, TAOK1 / Fold change vs veh, TAOK1 / RFU, ACBD3 / Fold change vs veh, ACBD3 / RFU, TMA16 / Fold change vs veh, TMA16 / RFU, RWDD3 / Fold change vs veh, RWDD3 / RFU, BCAT1 / Fold change vs veh, BCAT1 / RFU, EDEM3 / Fold change vs veh, EDEM3 / RFU, TMEM33 / Fold change vs veh, TMEM33 / RFU, WDR75 / Fold change vs veh, WDR75 / RFU, AHCTF1 / Fold change vs veh, AHCTF1 / RFU, TFRC / Fold change vs veh, TFRC / RFU, ZDHHC17 / Fold change vs veh, ZDHHC17 / RFU, NOM1 / Fold change vs veh, NOM1 / RFU, ARL8B / Fold change vs veh, ARL8B / RFU, ZBTB11 / Fold change vs veh, ZBTB11 / RFU, TAMM41 / Fold change vs veh, TAMM41 / RFU, KIAA1704 /// LOC100996395 / Fold change vs veh, KIAA1704 /// LOC100996395 / RFU, ING1 / Fold change vs veh, ING1 / RFU, TRMT61B / Fold change vs veh, TRMT61B / RFU, FUBP3 / Fold change vs veh, FUBP3 / RFU, TP53 / Fold change vs veh, TP53 / RFU, TNKS2 / Fold change vs veh, TNKS2 / RFU, ZFP14 / Fold change vs veh, ZFP14 / RFU, ACTR2 / Fold change vs veh, ACTR2 / RFU, PPP3R1 / Fold change vs veh, PPP3R1 / RFU, PIK3R1 / Fold change vs veh, PIK3R1 / RFU, HNRNPA1 / Fold change vs veh, HNRNPA1 / RFU, RNF170 / Fold change vs veh, RNF170 / RFU, ZNF28 / Fold change vs veh, ZNF28 / RFU, RNGTT / Fold change vs veh, RNGTT / RFU, OGT / Fold change vs veh, OGT / RFU, BRD1 / Fold change vs veh, BRD1 / RFU, MARS / Fold change vs veh, MARS / RFU, ZNF655 / Fold change vs veh, ZNF655 / RFU, FAHD1 / Fold change vs veh, FAHD1 / RFU, BDP1 / Fold change vs veh, BDP1 / RFU, LRRCC1 / Fold change vs veh, LRRCC1 / RFU, ARID1A / Fold change vs veh, ARID1A / RFU, ZNF146 / Fold change vs veh, ZNF146 / RFU, ZNF330 / Fold change vs veh, ZNF330 / RFU, GPN3 / Fold change vs veh, GPN3 / RFU, C9orf123 / Fold change vs veh, C9orf123 / RFU, N4BP2L2 / Fold change vs veh, N4BP2L2 / RFU, ARFIP1 / Fold change vs veh, ARFIP1 / RFU, FAM179B / Fold change vs veh, FAM179B / RFU, BCL10 / Fold change vs veh, BCL10 / RFU, UHRF1BP1L / Fold change vs veh, UHRF1BP1L / RFU, BET1 / Fold change vs veh, BET1 / RFU, CNOT2 / Fold change vs veh, CNOT2 / RFU, ZNF268 / Fold change vs veh, ZNF268 / Fold change vs veh, ZNF507 / RFU, DGCR2 / Fold change vs veh, DGCR2 / RFU, WDSUB1 / Fold change vs veh, WDSUB1 / Fold change vs veh, HSP90B1 /// MIR3652 / RFU, ADSS / Fold change vs veh, ADSS / RFU, GK / Fold change vs veh, GK / RFU, ZNF148 / Fold change vs veh, ZNF148 / RFU, TAF9 / Fold change vs veh, TAF9 / RFU, SLC1A5 / Fold change vs veh, SLC1A5 / RFU, SLMO2 / Fold change vs veh, SLMO2 / RFU, ABCC4 / Fold change vs veh, ABCC4 / RFU, LOC101060439 /// RAP1B / Fold change vs veh, LOC101060439 /// RAP1B / RFU, RFX7 / Fold change vs veh, RFX7 / RFU, GTPBP10 / Fold change vs veh, GTPBP10 / RFU, CNEP1R1 / Fold change vs veh, CNEP1R1 / RFU, BIVM-ERCC5 /// ERCC5 / Fold change vs veh, BIVM-ERCC5 /// ERCC5 / RFU, ILF3 / Fold change vs veh, ILF3 / RFU 11762660_at / Fold change /veh 11762660_at / RFU VCAN (11757783_s_at) / Fold change /veh VCAN (11757783_s_at) / RFU DDX43 (11728927_at) / Fold change /veh DDX43 (11728927_at) / RFU KRT8 (11758188_x_at) / Fold change /veh KRT8 (11758188_x_at) / RFU NKD1 (11759106_at) / Fold change /veh NKD1 (11759106_at) / RFU SRD5A1 (11742802_a_at) / Fold change /veh SRD5A1 (11742802_a_at) / RFU TPSAB1 /// TPSB2 (11721975_s_at) / Fold change /veh TPSAB1 /// TPSB2 (11721975_s_at) / RFU GSTM3 (11746129_a_at) / Fold change /veh GSTM3 (11746129_a_at) / RFU IL23R (11737362_x_at) / Fold change /veh IL23R (11737362_x_at) / RFU TMEM51 (11727254_a_at) / Fold change /veh TMEM51 (11727254_a_at) / RFU PIWIL2 (11732686_x_at) / Fold change /veh PIWIL2 (11732686_x_at) / RFU ORM1 (11744905_x_at) / Fold change /veh ORM1 (11744905_x_at) / RFU CCDC152 (11743942_at) / Fold change /veh CCDC152 (11743942_at) / RFU ECM1 (11717891_a_at) / Fold change /veh ECM1 (11717891_a_at) / RFU IL23R (11748794_a_at) / Fold change /veh IL23R (11748794_a_at) / RFU TNFAIP8L3 (11732012_x_at) / Fold change /veh TNFAIP8L3 (11732012_x_at) / RFU MBOAT4 (11741988_at) / Fold change /veh MBOAT4 (11741988_at) / RFU 11764193_at / Fold change /veh 11764193_at / RFU TMEM53 (11763286_at) / Fold change /veh TMEM53 (11763286_at) / RFU MAGEB2 (11727129_at) / Fold change /veh MAGEB2 (11727129_at) / RFU TMEM200A (11744735_a_at) / Fold change /veh TMEM200A (11744735_a_at) / RFU CCDC152 (11751479_a_at) / Fold change /veh CCDC152 (11751479_a_at) / RFU FAM211A (11726209_a_at) / Fold change /veh FAM211A (11726209_a_at) / RFU RGS16 (11746705_a_at) / Fold change /veh RGS16 (11746705_a_at) / RFU VCAN (11755009_s_at) / Fold change /veh VCAN (11755009_s_at) / RFU RHOB (11743442_s_at) / Fold change /veh RHOB (11743442_s_at) / RFU RGS16 (11720943_a_at) / Fold change /veh RGS16 (11720943_a_at) / RFU RGS16 (11720944_at) / Fold change /veh RGS16 (11720944_at) / RFU, VPS4B / Fold change vs veh, VPS4B / RFU, CREB1 / Fold change vs veh, CREB1 / RFU, DNAJC13 / Fold change vs veh, DNAJC13 / RFU, GNAQ / Fold change vs veh, GNAQ / RFU, CDK5R1 / Fold change vs veh, CDK5R1 / RFU, ZRANB3 / Fold change vs veh, ZRANB3 / RFU, CUL4A / Fold change vs veh, CUL4A / RFU, CCNY / Fold change vs veh, CCNY / RFU, UFL1 / Fold change vs veh, UFL1 / RFU, COG3 / Fold change vs veh, COG3 / RFU, DIAPH2 / Fold change vs veh, DIAPH2 / RFU, SKA2 / Fold change vs veh, SKA2 / RFU, AFF3 / Fold change vs veh, AFF3 / RFU, LMF1 / Fold change vs veh, LMF1 / RFU, IPO11 / Fold change vs veh, IPO11 / RFU, DFFB / Fold change vs veh, DFFB / RFU, FOXP1 / Fold change vs veh, FOXP1 / RFU, CARD8 / Fold change vs veh, CARD8 / RFU, STRN3 / Fold change vs veh, STRN3 / RFU, ADK / Fold change vs veh, ADK / RFU, RASSF2 / Fold change vs veh, RASSF2 / RFU, WIPF1 / Fold change vs veh, WIPF1 / RFU, LARP1B / Fold change vs veh, LARP1B / RFU, RASA1 / Fold change vs veh, RASA1 / RFU, RB1 / Fold change vs veh, RB1 / RFU, PPFIA1 / Fold change vs veh, PPFIA1 / RFU, MAT2A / Fold change vs veh, MAT2A / RFU, CCT5 / Fold change vs veh, CCT5 / RFU, WDR92 / Fold change vs veh, WDR92 / RFU, CUX1 / Fold change vs veh, CUX1 / RFU, TTC7A / Fold change vs veh, TTC7A / RFU, TMEM135 / Fold change vs veh, TMEM135 / RFU, DEPTOR / Fold change vs veh, DEPTOR / RFU, CPM / Fold change vs veh, CPM / RFU, DNAJB6 / Fold change vs veh, DNAJB6 / RFU, CACNA2D3 / Fold change vs veh, CACNA2D3 / RFU, DTX4 / Fold change vs veh, DTX4 / RFU, TFCP2 / Fold change vs veh, TFCP2 / RFU, GMCL1 /// GMCL1P1 / Fold change vs veh, GMCL1 /// GMCL1P1 / RFU, AEBP2 / Fold change vs veh, AEBP2 / RFU, SNHG1 /// SNORD22 /// SNORD25 /// SNORD26 /// SNORD27 /// SNORD28 /// SNORD29 /// SNORD31 / Fold change vs veh, SNHG1 /// SNORD22 /// SNORD25 /// SNORD26 /// SNORD27 /// SNORD28 /// SNORD29 /// SNORD31 / Fold change (Aza/veh), C12orf56 (ProbeSet 11735607_a_at) / Fold change (ACY-1035/veh), C12orf56 (ProbeSet 11735607_a_at) / Fold change (Aza/veh), FGFR1OP (ProbeSet 11751329_s_at) / Fold change (ACY-1035/veh), FGFR1OP (ProbeSet 11751329_s_at) / Fold change (Aza/veh), VPS36 (ProbeSet 11739960_a_at) / Fold change (ACY-1035/veh), VPS36 (ProbeSet 11739960_a_at) / RFU SYPL1 (11715823_x_at) / Fold change /veh SYPL1 (11715823_x_at) / RFU IGFBP7 (11715501_s_at) / Fold change /veh IGFBP7 (11715501_s_at) / RFU REEP3 (11722064_at) / Fold change /veh REEP3 (11722064_at) / RFU IGLL1 (11728026_x_at) / Fold change /veh IGLL1 (11728026_x_at): dose or concentration left out as unconfirmed
Conditions: ProbeSet 11734937_a_at; LIST B

Question: For `Nc1ccc(-c2cccs2)cc1NC(=O)c1ccc2c(c1)cc(C1CC1)n2CCN1CCOCC1` [ACY-1035], which “Fold change vs veh, CNOT2” value is on record?
Answer: The value was 0.83.
